Laboratory results from PubChem BioAssay (NCI).
“And” between values parts separate entries of the source, which are not always exact repeats. Equal entries are not always repeated.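 Following 48 hours of exposure in 96-well plates, responses at five concentrations were used to interpolate endpoints linearly. At the GI50, growth is halved. TGI denotes the concentration required for complete inhibition of growth.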 *1 amine or outer side, *2 acyl side, *3 side chain or, on linkers, in order; H or OH if unused. Where a SMILES comes first, the peptide text is derived from it. Bridges are numbered along the chain shown (N, C = ends). Roman numbers before positions name the chains, in order. [ ]: non-standard residue; d: D form. Actinocin(9to1) = Cc1c2oc3c(C)ccc(C(=O)[*:1])c3nc-2c(C(=O)[*:2])c(N)c1=O; NMeT = CN[CH](C(=O)O)[CH](C)O; Sar = CNCC(=O)O

How the values were obtained:
Test in all cases: DTP human tumour cell line panel, 48 h
SR leukemia = system: SR leukemia
HL-60(TB) leukemia = system: HL-60(TB) leukemia
MDA-MB-435 = system: MDA-MB-435
KM12 colon = system: KM12 colon
HCT-116 colon = system: HCT-116 colon
SW-620 colon = system: SW-620 colon
UACC-257 melanoma = system: UACC-257 melanoma
OVCAR-8 ovarian = system: OVCAR-8 ovarian
NCI/ADR-RES ovarian = system: NCI/ADR-RES ovarian
A498 renal = system: A498 renal

Row | SMILES | GI50 (SR leukemia) | TGI (SR leukemia) | GI50 (HL-60(TB) leukemia) | TGI (HL-60(TB) leukemia) | GI50 (MDA-MB-435) | TGI (MDA-MB-435) | GI50 (KM12 colon) [µM] | TGI (KM12 colon) [µM] | GI50 (HCT-116 colon) [µM] | TGI (HCT-116 colon) [µM] | GI50 (SW-620 colon) [µM] | TGI (SW-620 colon) | GI50 (UACC-257 melanoma) | TGI (UACC-257 melanoma) | GI50 (OVCAR-8 ovarian) [µM] | TGI (OVCAR-8 ovarian) [µM] | GI50 (NCI/ADR-RES ovarian) | TGI (NCI/ADR-RES ovarian) [µM] | GI50 (A498 renal) | TGI (A498 renal)
1 | COC(=O)CC[C@]1(C)O[C@H]2[C@H]([C@@H](C)CCCC(C)=O)OC(=O)[C@@H]2C[C@H]1O | > 100 µM | > 100 µM | > 100 µM | > 100 µM | 98.3 µM | > 100 µM | > 100 | > 100 | > 100 | > 100 | > 100 | > 100 µM | 44.9 µM | > 100 µM | > 100 | > 100 | > 100 µM | > 100 |  | 
2 | Cc1ccc(Cc2cnc(NC(=O)/C=C/c3cccc(C)c3)s2)cc1 | 0.0449 µM | 2.23 µM | 0.0933 µM | 0.559 µM | 0.0275 µM | 0.104 µM | 0.14 | > 48.4 | 0.0746 | 2.4 | 0.0731 | > 100 µM | > 42.3 µM | > 100 µM | 0.447 | > 44.5 | 0.135 µM | 2.06 | 0.277 µM | 3.14 µM
3 | C=C(C)[C@@H]1CC[C@]2(C(=O)O)CC[C@]3(C)[C@H](CC[C@@H]4[C@@]5(C)CCC(NC(=O)c6cccc(OC(C)=O)c6OC(C)=O)C(C)(C)[C@@H]5CC[C@]43C)[C@@H]12 (stereo not given in full) | 0.568 µM | 3.14 µM | 1.27 µM | 4.52 µM | 0.382 µM | 1.61 µM | 0.651 | 3.46 | 0.376 | 1.54 |  |  | 0.209 µM | 0.78 µM | 0.996 | 3.24 | 0.817 µM | 6.43 | 0.644 µM | 1.97 µM
4 | Cc1nc2sc(C(=O)Nc3cccc4ccccc34)c(N)c2cc1C(O)c1ccccc1 (stereo not given) | 0.04 µM | > 43 µM | 0.0376 µM | 0.194 µM | 0.0205 µM | 0.0469 µM | 0.044 | 1.73 | 0.0439 | 10.9 | 0.0377 | 23.4 µM | 1.5 µM | 26.4 µM | 0.101 | 71.2 | 0.0373 µM | 0.968 | 0.0202 µM | 0.0636 µM
5 | C=C1C(=O)O[C@H]2[C@H]1CC/C(COC(=O)c1cc3ccccc3o1)=C\CC[C@@]1(C)O[C@@H]21 | 1.15 µM | 5.33 µM | 1.22 µM | 3.68 µM | 1.43 µM | 2.9 µM | 2.02 | 4.61 | 0.32 | 1.3 | 0.662 | 2.49 µM | 1.52 µM | 3.04 µM | 2.43 | 7.63 | 2.59 µM | 10.1 | 12.9 µM | 26 µM
6 | C=C1C(C2(C)C(OC(C)=O)CC(=O)OC(C)(COC(C)=O)C2CC(=O)OC)C(OC=O)C(OC(=O)C(O)C(C)CC)C2(C)C(c3ccoc3)CC(=O)C12O (stereo not given) |  | > 100 µM |  | 0.414 µM |  | > 100 µM |  | > 100 |  | > 100 |  | > 100 µM |  | > 100 µM |  | > 100 |  | > 100 |  | > 29.3 µM
7 | CNC/C(Cl)=N/S(=O)(=O)c1ccc(C)cc1 |  | 34.9 µM |  |  |  | 21.5 µM |  | 27.7 |  | 21.1 |  | > 100 µM |  | 25.4 µM |  | > 100 |  | > 100 |  | 54.4 µM
8 | COc1cc2ncn(-c3cc(O[C@@H](C)c4ccccc4Cl)c(C(N)=O)s3)c2cc1OC | 0.701 µM | > 18.8 µM | 0.728 µM | 2.86 µM | 0.146 µM | > 25 µM | 0.559 | > 25 | 1.01 | > 25 | 0.612 | > 25 µM | 3.1 µM | > 21.9 µM | 1.45 | > 25 | 0.429 µM | > 25 | 1.08 µM | 13.8 µM
9 | O=C(O)CCCSc1ccccc1 |  | > 100 µM |  | > 100 µM |  | > 100 µM |  | > 100 |  | > 100 |  | > 100 µM |  | > 100 µM |  | > 100 |  | > 100 |  | > 100 µM
10 | COc1cccc(/C=C/[N+](=O)[O-])c1 | 1.64 µM | 5.18 µM | 2.31 µM | 5.77 µM | 2.69 µM | 9.28 µM | 2.54 | 7.35 | 1.49 | 3.31 | 1.97 | 4.27 µM | 3.19 µM | 11.6 µM | 10.7 | 25.1 | 26.2 µM | 97.8 | 3.54 µM | 16.5 µM
11 | Cc1c2oc3c(C)ccc(C(=O)NC4C(=O)NC(C(C)C)C(=O)N5CCCC5C(=O)N(C)CC(=O)N(C)C(C(C)O)C(=O)OC4C)c3nc-2c(C(=O)NC2C(=O)NC(C(C)C)C(=O)N3CCCC3C(=O)N(C)CC(=O)N(C)C(C(C)O)C(=O)OC2C)c(N)c1=O (stereo not given) (I: TVP[Sar][NMeT] / II: TVP[Sar][NMeT]; ester I:1-I:C, II:1-II:C; linker I:N-II:N via Actinocin(9to1); configuration not given here) | 1.1 µM and 0.187 µM | 5.35 µM and > 1 µM | 3 µM and > 1 µM | 28.1 µM and > 1 µM | 2.11 µM and > 1 µM | 21 µM and > 1 µM |  | > 100 |  | > 100 |  | 43.4 µM and > 1 µM | 2.09 µM and > 1 µM | 25.1 µM and > 1 µM |  | > 43.8 | 25.9 µM and > 1 µM | > 100 | 0.327 µM and > 1 µM | 2.33 µM and > 1 µM
12 | NC[C@H]1Nc2ccccc2[C@@H](O)C1O (stereo not given in full) |  | > 100 µM |  | > 100 µM |  | > 100 µM |  | > 100 |  | > 100 |  | > 100 µM |  | > 100 µM |  | > 100 |  | > 100 |  | 
13 | C[C@@H](O)[C@H](NC(=O)N[C@@H](CC(N)=O)c1nc([C@@H](N)CO)no1)C(=O)O | > 100 µM | > 100 µM | > 100 µM | > 100 µM | > 100 µM | > 100 µM | > 100 | > 100 | > 100 | > 100 | > 100 | > 100 µM | > 100 µM | > 100 µM | > 100 | > 100 | > 100 µM | > 100 | > 100 µM | > 100 µM
